Measurements published in patent US20240189263A1, “DERIVATIZED C60 MOLECULES AND METHODS AND MATERIALS FOR USING DERIVATIZED C60 MOLECULES TO REDUCE RADIATION INJURY” (Mayo Foundation for Medical Education and Research, priority 2021, published 2024).

Key:
HUVEC cells = assay: DNA damage, γH2AX foci immunofluorescence, HUVEC; type: cell-based
Method: (§1) To test the ability of C60-ser to protect against radiation injury, the level of DNA damage in response to radiation was analyzed by measuring γH2AX. The H2AX protein becomes phosphorylated into γH2AX as a result of DNA double strand breaks. This allows for the visualization and quantification of double strand break foci through immunofluorescence analysis. Cells were plated on 8 chamber slides and incubated overnight before C60-ser treatment. Three sets of slides per cell line (to be irradiated with 0, 0.5, and 1 Gy) were prepared, with the top 4 rows used as a control and the bottom 4 rows incubated with 100 μM C60-ser. Cells were incubated with C60-ser for 2 hours before irradiation with a clinical Proteus One proton machine (Ion Beam Applications, Louvain-la-Neuve, Belgium). A 230 MeV mono-energetic unmodulated broad beam of large field size that encompassed all slides containing the cells was used to deliver the 0.5 and 1 Gy doses. White solid water slabs (IBA Dosimetry, Germany) provided the necessary phantom material to place the cells at the desired 8 cm depth with an LET of approximately 1.7 keV/μm. After irradiation, cells were incubated at 37° C. with 5% CO2 for 30 minutes before washing and fixing the cells with 1% formaldehyde. The cells were permeabilized with 1% NP-40 and incubated with 5% BSA to block unspecific antibody bonding. The cells were then incubated with γH2AX primary antibody followed by a secondary antibody. Mounting media containing DAPI was used before applying cover slips and sealing the samples. Cells were imaged on an Olympus IX71 trinocular inverted fluorescence phase contrast microscope with a 40× objective. The resulting images were analyzed by ImageJ, and the foci were counted.

[1] = Stability of C60-ser, hexakis-adduct peak by HPLC-ELSD; type: physicochemical
Method: Stability of the C60-ser product as prepared in Example 1 was analyzed by measuring the hexakis-adduct peak with high performance liquid chromatography (HPLC) equipped with evaporative light scattering detector (ELSD). The C60-ser was stored as a solid form at 4° C. under nitrogen, as a solution in DI water at 4° C., and as a solution in DI water at room temperature. The stability of the C60-ser in each set of storage conditions was measured at 1, 7, 28, and 120 days (Table 1).

[2] = Dynamic light scattering analysis of C60-ser aggregates; type: physicochemical; details: for Predominant aggregate sizes: in PBS
Method: Dynamic light scattering (DLS) was used to observe the aggregation process of C60-ser. Dynamic light scattering heatmaps were created by combining multiple normalized particle number weighted distribution (PNWD) plots. The PNWD plots compared the log of the relative scattering intensity versus particle size, at angles of 173°. The refractive index was assumed to be n=1.34, the absorption constant to be k=0.001, and the solution viscosity to be that of water, corrected for temperature (η=0.888 mPa s). Plots were collected with a 0.2° C. interval. Each temperature interval was held constant for more than 45 minutes before performing the next measurement, to ensure the presence of an aggregation equilibrium.

NIH3T3 cells [3] = assay: DNA damage, γH2AX foci immunofluorescence, NIH3T3; type: cell-based
Method: as §1

NIH3T3 cells [4] = assay: ROS by H2-DCFDA probe after proton irradiation, NIH3T3; type: cell-based; details: NIH3T3, pretreated 100 μM, TBHP 200 μM, 1 Gy proton, read 30 minutes post radiation
Text: Cell lines were irradiated using pencil beam scanning (PBS) proton beams produced by IBA ProteusOne (Ion Beam Applications, Louvain-la-Neuve, Belgium). Single layer mono-energy 227 MeV pencil beams with uniform spacing of 0.25 cm between each spot were used to create a large field size with uniform dose distribution (±2%) that encompassed all sample wells containing the cells. A fixed source to surface distance (SSD) setup and gantry at 180 degrees was used to delivery 0.5, 1, 2, 4, and 6 Gray (Gy) dose of ionizing radiation to cells. The cells were place at an 8 cm depth, with a linear energy transfer (LET) of approximately 1.7 keV/μm, using solid water slabs as a buildup. […] The monitor units needed to deliver the intended dose were calculated using the measure dose/MU values.
Post radiation, 2′,7′-dichlorodihydrofluorescein diacetate (H2-DCFDA) probes were used to measure the level of reactive oxygen species (ROS) post-proton radiation (1 Gy, 230 MeV proton beam). […] A fluorescence microplate reader (SpectraMax M5, Molecular Devices Corporation, California, USA) was used to detect the generation of fluorescent DCF molecules with an excitation filter of 485 nm and an emission filter of 525 nm, with a 515 nm cutoff filter. […] Following irradiation, the cells were transported back for plate reading, 30 minutes post radiation.

With O=C(NC(CO)CO)C1(C(=O)NC(CO)CO)C23c4c5c6c7c8c4-c4c2c2c9c%10c4C4%11c%12c-%10c%10c%13c%14c%12-c%12c(c-7c7c%15c%12C%14%12C(C(=O)NC(CO)CO)(C(=O)NC(CO)CO)C%12%14c%12c%16c%17c%18c(c%12-%15)C7%12C(C(=O)NC(CO)CO)(C(=O)NC(CO)CO)C6%12c6c-5c5c7c(c6-%18)C%176C(C(=O)NC(CO)CO)(C(=O)NC(CO)CO)C6%12c6c-7c(c-2c2c6-c6c%12c-%16c%14c-%13c6C%106C(C(=O)NC(CO)CO)(C(=O)NC(CO)CO)C926)C513)C84C%11(C(=O)NC(CO)CO)C(=O)NC(CO)CO (centres unmarked) [C60-ser, C60-serinol] the “γH2AX foci vs control” value (HUVEC cells; 100 μM 2 hours before 0.5 Gy proton radiation) was “trend towards reduction in total foci formed, but it was not statistically significant”, the “γH2AX foci vs control” value (HUVEC cells; 100 μM 2 hours before 1 Gy proton radiation) was “significant decrease in the number of foci” and the “γH2AX foci vs control” value (HUVEC cells; 100 μM 2 hours, absence of radiation) was “no significant different in foci expression”. The “Stability of C60-ser (hexakis-adduct peak)” value (“Stability of C60-ser” for short) ([1]; Solid form at 4° C. under nitrogen, 1 day) was 100 ± 2%, the “Stability of C60-ser” value ([1]; Solid form at 4° C. under nitrogen, 7 days) was 100 ± 1% and the “Stability of C60-ser” value ([1]; Solid form at 4° C. under nitrogen, 28 days) was 100 ± 1%. For the same compound, the “Stability of C60-ser” value ([1]; Solid form at 4° C. under nitrogen, 120 days) was 100 ± 2%, the “Stability of C60-ser” value ([1]; Solution in DI water at 4° C., 1 day) was 100 ± 2% and the “Stability of C60-ser” value ([1]; Solution in DI water at 4° C., 7 days) was 100 ± 2%. The “Stability of C60-ser” value ([1]; Solution in DI water at 4° C., 28 days) was 100 ± 3%, the “Stability of C60-ser” value ([1]; Solution in DI water at 4° C., 120 days) was 98 ± 3% and the “Stability of C60-ser” value ([1]; Solution in DI water at room temperature, 1 day) was 100 ± 2%. For the same compound, the “Stability of C60-ser” value ([1]; Solution in DI water at room temperature, 7 days) was 100 ± 2%, the “Stability of C60-ser” value ([1]; Solution in DI water at room temperature, 28 days) was 96 ± 3% and the “Stability of C60-ser” value ([1]; Solution in DI water at room temperature, 120 days) was 95 ± 4%. The “degradation of the hexakis-adduct peak” value ([1]; solid at 4° C. under nitrogen) was “no degradation of the hexakis-adduct peak was observed”, the Predominant aggregate sizes ([2]; 0.1 mg/mL, 37 ° C.) was 260 ± 38 nm and the Predominant aggregate sizes ([2]; 10 mg/mL, 4 ° C.) was 290 ± 73 nm. For the same compound, the Predominant aggregate sizes ([2]; 10 mg/mL, 37 ° C.) was 233 ± 56 nm, the size of aggregates ([2]; dynamic equilibrium in water) was 100-2000 nm and the “size of conjugate monomers” value ([2]; dynamic equilibrium in water) was about 3 nm. For the same compound, the “diameters of individual molecules” value ([2]; initially, when dissolved in water) was 3-4 nm, the “γH2AX foci vs control” value (NIH3T3 cells [3]; NIH3T3, 100 μM 2 hours before 0.5 Gy proton radiation) was “trend towards reduction in total foci formed, but it was not statistically significant” and the “γH2AX foci vs control” value (NIH3T3 cells [3]; NIH3T3, 100 μM 2 hours before 1 Gy proton radiation) was “significant decrease in the number of foci”. The “γH2AX foci vs control” value (NIH3T3 cells [3]; NIH3T3, 100 μM 2 hours, absence of radiation) was “no significant different in foci expression” and the “ROS (H2-DCFDA fluorescence)” value (NIH3T3 cells [4]) was “significant reduction in ROS”.
